What all share (assay): growth of human tumour cells (NCI), 48 h
The test system of experiment [1] is ACHN renal.
Experiment [2] relates to UACC-257 melanoma.
In experiment [3] the test system is TK-10 renal.
The subject of experiment [4] is A498 renal.
Experiment [5] has as its system KM12 colon.
Experiment [6] relates to SW-620 colon.
Experiment [7] deals with EKVX NSCLC.
Experiment [8] concerns OVCAR-3 ovarian.
Experiment [9] deals with SK-MEL-5 melanoma.
Experiment [10] deals with A549 NSCLC.

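Results reflect a 48-hour exposure of cells in 96-well plates to compound at five concentrations. At the GI50, growth is halved. TGI is the concentration that stops growth completely.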 Where only a bound is given, the exact number is not on record here.

As for `CC(C)c1cc(CN(C)C)c(O)c(C(C)(C)C)c1`, the TGI is 32.3 µM in experiment [1]; 29.2 µM in experiment [2]; above 100 µM in experiment [3]; 41.3 µM in experiment [4]; 46.2 µM in [5]; 36.4 µM in experiment [6]. Also, the TGI in [7] stood at 64.4 µM; in [8], 31.2 µM; in experiment [9], 29.9 µM; in experiment [10], 53.1 µM.

As to `CCOC(=O)C12CCC(=O)C=C1[C@@H](C)C(=O)CC2` (some centres undefined), the TGI in [1], in [2], in [3], in [5], in experiment [6] and in experiment [7] was above 100 µM in each case. In addition, the TGI in [8] and in experiment [9] was above 100 µM in each case.

`Nc1nc(N)c2c(n1)NC(=O)c1c(c3ccccc3n1Cc1ccc(Cl)cc1)C2`: the TGI in experiment [2] was above 100 µM; in experiment [3], 46.9 µM; in [4] it was 30.8 µM; in experiment [6], above 100 µM; in [7], above 100 µM; in [8], 56.5 µM. Besides, the TGI in [9] stood at 28.6 µM; in [10], 62.6 µM.

For `CC(C)(C)N1C(C(=O)c2ccccc2)C1c1ccccc1` (centres undefined), the TGI in experiment [2], in experiment [3], in [5], in [6], in experiment [7] and in [8] was above 100 µM in each case. Further, the TGI in experiment [9] and in experiment [10] was above 100 µM throughout.

Take `C#CCOc1c(C(=O)OCC)c(=O)n(C)c2ccccc12`: the TGI in [1], in experiment [3], in [4], in experiment [6], in experiment [7] and in [8] was above 100 µM each time. Besides, the TGI in experiment [9] was above 100 µM.

In the case of `CC(=O)OC(C)C1C2=C(C(=O)CC1(C)O)C(=O)c1c(ccc(-c3ccc4c(c3O)C(=O)C3=C(C4=O)C(C(C)OC(C)=O)C(C)(O)CC3=O)c1O)C2=O` (centres undefined), the TGI in experiment [1] worked out at 3.22 µM; in experiment [2], 3.48 µM; in experiment [3], 5.41 µM; in [4], 8.51 µM; in [5], 10.6 µM; in experiment [6], 2.1 µM. Further, the TGI in experiment [7] was determined as 26.1 µM; in experiment [8], 5.29 µM; in experiment [9], 8.22 µM; in experiment [10] it was 18.8 µM.

Regarding `NC(=O)C(N)=O`, the TGI in experiment [1], in experiment [2], in [3], in experiment [4], in [5] and in [6] was above 100 µM in each case. Moreover, the TGI in [7], in experiment [8], in [9] and in experiment [10] was above 100 µM each time.

As for `CC(C)=CCNc1ncnc2nc[nH]c12`, the TGI in experiment [1], in experiment [2], in experiment [3], in experiment [4], in [5] and in experiment [6] was above 100 µM in each case. In addition, the TGI in experiment [7], in experiment [8], in [9] and in experiment [10] was above 100 µM in each case.

As for `COC(=O)Nc1nc2cc(OC)c(OC)cc2c(=O)[nH]1`, the TGI in experiment [1], in [2], in [3], in [4], in experiment [5] and in experiment [6] was above 100 µM throughout. Moreover, the TGI in experiment [7], in [8], in experiment [9] and in experiment [10] was above 100 µM throughout.

Regarding `O=C(CSc1nc2ccccc2s1)c1sc2sc3ccccc3[n+]2c1[O-]`, the TGI in experiment [1], in experiment [2], in [3], in [4], in experiment [5] and in experiment [6] was above 100 µM throughout. The TGI in [7], in experiment [8], in [9] and in [10] was above 100 µM in each case.

Turning to `COc1ccc(C[C@H](N)C(=O)NC2C(CO)OC(n3cnc4c(N(C)C)ncnc43)C2O)cc1` (some centres undefined), the TGI was determined as 1.67 µM in experiment [2]; 2.48 µM in experiment [4]; 1.32 µM in experiment [5]; 1.06 µM in experiment [7]; 0.847 µM in [9]; 2.55 µM in experiment [10].

With `O=C(CNc1cccc([N+](=O)[O-])c1)Nn1c(-c2ccccc2)nc2ccccc2c1=O`, the TGI in [1] is 3.34 µM; in experiment [2], 11.8 µM; in experiment [3], 3.95 µM; in experiment [4] it was 0.274 µM; in experiment [5], 4.42 µM; in experiment [6], 2.05 µM. Besides, the TGI was determined as 6.86 µM in experiment [7], 5.15 µM in [8], 2.31 µM in experiment [9] and 4.9 µM in experiment [10].

As to `N#CCCCC[N+]12CN3CN(CN(C3)C1)C2`, the TGI in experiment [1], in experiment [2], in [3], in experiment [4], in experiment [5] and in experiment [6] was above 100 µM each time. Moreover, the TGI in [7], in experiment [8], in [9] and in experiment [10] was above 100 µM throughout.

Take `N#CN=C(N)NC(=O)/C=C/C=C/c1ccc(Cl)cc1`: the TGI in experiment [1], in experiment [2], in experiment [3], in [4], in [5] and in experiment [6] was above 100 µM throughout. Also, the TGI in experiment [8], in experiment [9] and in experiment [10] was above 100 µM each time.

Take `N=C(c1ccc2ccccc2c1)c1ccccc1Cc1ccccc1`: the TGI in experiment [1], in experiment [2], in experiment [3], in experiment [4], in experiment [5] and in experiment [6] was above 100 µM in each case. In addition, the TGI is above 100 µM in experiment [7], 57.3 µM in experiment [8], above 100 µM in experiment [9] and above 100 µM in experiment [10].

With `O=c1ccc2nc(-c3ccccc3)nn(-c3ccccn3)c-2c1`, the GI50 in [1] is 1700 nM; in experiment [2] it was 3.66 µM; in experiment [3], 1710 nM; in [4] it was 16.6 µM; in experiment [5], 25.5 µM; in experiment [7] it was 14.8 µM. For the same molecule, the GI50 in experiment [8] is 1690 nM; in [9] it was 13.9 µM; in experiment [10] it was 38.4 µM. Also, the TGI in [1] came to 3.17 µM; in experiment [2] it was 14.6 µM; in experiment [3], 3.14 µM; in experiment [4] it was 37.3 µM; in [5] it was 70.2 µM; in experiment [7], 28.2 µM. The values for the TGI in experiment [8], in experiment [9] and in experiment [10] were 3.15 µM, 33.6 µM and above 100 µM, respectively.

(Values after PubChem BioAssay (NCI).)
